“Also recorded” adds a separate entry of the source.

These results are taken from patent US20040002052A1, “Systems and methods for rapid evaluation and design of molecules for predicted biological activity” (priority 2001, published 2004).

The subject of assay [1] is estrogenic activity. Kind of assay: uterotrophic assays (estrogenic bioactivity). It counts as in vivo. The following applies: compared with estradiol.
The test system of assay [2] is estrogenic activity. The following applies: Medicinal Chemistry Research 10:440-455, 2001; cited from earlier work.

In the case of `CO[C@H]1C[C@]2(C)[C@@H](O)CC[C@H]2[C@H]2[C@H]1c1ccc(O)cc1C[C@H]2C` [PDC-7, 11β-Methoxy-7α-Methylestradiol], in the assay with estrogenic activity [1], the “biological potency in uterotrophic assays / estrogenic activity” value is “improved biological potency over estradiol; also recorded: potent estrogenic activity”. Moreover, the “estrogenic bioactivity compared with estradiol” value with estrogenic activity [2] is “greater estrogenic bioactivity than estradiol”.
